Reference: patent US11053300B2, “Membrane span-kinase fusion protein and the uses thereof” (VIB VZW, priority 2012, dated 2021)

Key:
[1] = molecular target: T1, ERN1 (Homo sapiens, UniProt O75460); conditions: reported, Feldman and Koong, 2007; cited from earlier work
Target sequence in this assay (O75460 19-977, species assumed): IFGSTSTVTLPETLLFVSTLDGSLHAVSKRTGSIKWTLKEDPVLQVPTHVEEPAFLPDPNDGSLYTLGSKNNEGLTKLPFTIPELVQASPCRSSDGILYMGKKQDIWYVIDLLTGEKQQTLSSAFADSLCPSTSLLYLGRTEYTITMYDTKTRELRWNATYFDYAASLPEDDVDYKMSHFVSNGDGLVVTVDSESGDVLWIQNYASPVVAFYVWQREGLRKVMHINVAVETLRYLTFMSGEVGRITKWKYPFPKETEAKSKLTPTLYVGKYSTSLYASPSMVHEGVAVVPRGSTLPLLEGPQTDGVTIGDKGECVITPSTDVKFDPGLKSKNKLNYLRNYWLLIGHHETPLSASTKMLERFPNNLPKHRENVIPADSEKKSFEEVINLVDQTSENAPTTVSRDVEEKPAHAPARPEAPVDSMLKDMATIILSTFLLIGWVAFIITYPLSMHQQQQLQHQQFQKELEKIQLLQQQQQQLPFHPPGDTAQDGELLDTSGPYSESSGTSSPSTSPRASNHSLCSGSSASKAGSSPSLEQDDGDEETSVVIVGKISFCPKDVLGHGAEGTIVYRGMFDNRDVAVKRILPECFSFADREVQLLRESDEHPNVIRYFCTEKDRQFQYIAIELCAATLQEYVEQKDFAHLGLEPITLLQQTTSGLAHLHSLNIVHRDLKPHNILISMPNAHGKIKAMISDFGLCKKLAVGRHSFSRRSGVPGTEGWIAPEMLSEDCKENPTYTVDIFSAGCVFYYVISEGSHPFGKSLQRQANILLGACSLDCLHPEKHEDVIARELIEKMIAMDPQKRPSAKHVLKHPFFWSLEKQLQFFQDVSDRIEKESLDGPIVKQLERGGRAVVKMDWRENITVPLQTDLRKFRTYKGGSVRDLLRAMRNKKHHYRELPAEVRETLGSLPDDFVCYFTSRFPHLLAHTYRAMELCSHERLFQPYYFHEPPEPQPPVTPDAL

[2] = molecular target: T1, ERN1; experiment: ERN1 dimerization, ERN1-Tyk2(C)/ERN1-gp130 luciferase reporter assay; format: cell-based; design: Flag (N); expressed in transfected cells; host or cells: HEK293-T
Protocol: Transfections were carried out using a standard calcium phosphate method. HEK293-T cells were seeded in black tissue-culture treated 96-well plates at 10.000 cells/well in 100 μl culture medium (DMEM supplemented with 10% FCS). Twenty-four hours later, plasmid DNA mixes were prepared that contained plasmids encoding fusion proteins with the first and second interacting proteins and reporter plasmids. The DNA was supplemented with 5 μl 2.5M CaCl2) and double distilled water to a final volume of 50 μl. This mixture was added drop wise to 50 μl 2×HeBS buffer (280 mM NaCl, 1.5 mM Na2HPO4, 50 mM Hepes; pH 7.05) while vigorously vortexing. After incubation at room temperature for 15 min. to allow DNA precipitates to form, the solution was added to the cells at 10 μl/well. Cells were incubated at 37° C., 8% CO2. Twenty-four hours after transfection, cells were treated with the indicated amounts of ligand, either alone or combined with the indicated amount of antagonist. […] Another twenty-four hours later, luciferase activity was measured using the Luciferase Assay System kit (Promega) on a TopCount luminometer (Perkin-Elmer). Each transfection was done in triplicate and the average of the luciferase activity readings was used in the calculations.
Tunicamycin (Sigma T7765; 2 mg/ml stock in DMSO) was diluted in culture medium and added to the cells 24 h prior to luciferase signal read-out. […]
Target sequence in this assay (O75460 with tags, fused parts or gaps): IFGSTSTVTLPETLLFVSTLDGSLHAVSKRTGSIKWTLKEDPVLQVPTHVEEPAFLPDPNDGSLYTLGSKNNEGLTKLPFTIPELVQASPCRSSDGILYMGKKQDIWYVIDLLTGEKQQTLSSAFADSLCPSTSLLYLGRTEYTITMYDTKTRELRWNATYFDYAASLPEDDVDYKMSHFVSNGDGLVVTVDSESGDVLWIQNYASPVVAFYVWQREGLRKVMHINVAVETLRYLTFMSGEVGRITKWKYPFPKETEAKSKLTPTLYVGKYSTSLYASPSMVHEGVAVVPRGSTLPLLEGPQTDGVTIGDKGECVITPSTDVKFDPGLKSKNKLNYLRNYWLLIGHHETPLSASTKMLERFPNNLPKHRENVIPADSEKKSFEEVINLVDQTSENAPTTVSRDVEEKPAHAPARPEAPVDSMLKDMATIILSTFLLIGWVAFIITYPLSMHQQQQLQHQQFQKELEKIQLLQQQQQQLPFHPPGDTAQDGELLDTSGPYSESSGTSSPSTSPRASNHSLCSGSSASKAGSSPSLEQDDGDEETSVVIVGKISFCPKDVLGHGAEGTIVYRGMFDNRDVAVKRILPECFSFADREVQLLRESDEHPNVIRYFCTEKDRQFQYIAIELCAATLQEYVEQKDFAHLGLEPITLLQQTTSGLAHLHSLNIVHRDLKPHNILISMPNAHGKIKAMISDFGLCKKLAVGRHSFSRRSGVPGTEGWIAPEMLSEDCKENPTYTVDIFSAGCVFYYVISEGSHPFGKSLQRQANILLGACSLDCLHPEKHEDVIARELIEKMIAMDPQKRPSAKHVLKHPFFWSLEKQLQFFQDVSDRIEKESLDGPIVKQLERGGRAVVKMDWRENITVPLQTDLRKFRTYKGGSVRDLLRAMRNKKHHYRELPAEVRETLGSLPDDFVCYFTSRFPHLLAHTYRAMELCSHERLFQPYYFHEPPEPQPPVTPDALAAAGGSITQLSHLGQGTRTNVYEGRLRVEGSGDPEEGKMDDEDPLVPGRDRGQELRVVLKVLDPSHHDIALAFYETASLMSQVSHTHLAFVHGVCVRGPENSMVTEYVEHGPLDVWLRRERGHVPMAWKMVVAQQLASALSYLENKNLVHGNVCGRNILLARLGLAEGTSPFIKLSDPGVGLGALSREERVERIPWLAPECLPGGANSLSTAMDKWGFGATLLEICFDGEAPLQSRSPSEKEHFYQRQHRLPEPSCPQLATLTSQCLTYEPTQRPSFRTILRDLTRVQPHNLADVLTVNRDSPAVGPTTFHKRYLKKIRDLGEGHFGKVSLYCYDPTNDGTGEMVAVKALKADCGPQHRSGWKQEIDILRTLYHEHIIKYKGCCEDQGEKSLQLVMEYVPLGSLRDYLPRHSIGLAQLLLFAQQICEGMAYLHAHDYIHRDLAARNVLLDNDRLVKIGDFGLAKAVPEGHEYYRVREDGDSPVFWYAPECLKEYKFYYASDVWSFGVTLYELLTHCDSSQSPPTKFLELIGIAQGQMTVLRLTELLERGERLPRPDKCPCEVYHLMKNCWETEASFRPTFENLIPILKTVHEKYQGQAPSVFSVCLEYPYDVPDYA

[3] = molecular target: T2, human angiotensin receptor 1 (AGTR1) (Homo sapiens, UniProt P30556); experiment: Ligand-dependent AGTR1-ARRB2 interaction, Tyk2(C)/gp130 fusion STAT3-luciferase reporter assay; format: cell-based; conditions: 10 μM angiotensin II; for effect of antagonist on AGTR1-ARRB2 interaction signal: 0.05 or 0.5 μM CYN154806, 0.1 or 1 μM losartan or telmisartan, FIG. 4 transfection d; for effect of antagonist on AGTR1-ARRB2 interaction signal, dose-response: antagonist 10^-13 M up to 10^-6 M
T2 construct: expressed in transfected cells; host or cells: HEK293-T
T2 sequence (P30556 with tags, fused parts or gaps): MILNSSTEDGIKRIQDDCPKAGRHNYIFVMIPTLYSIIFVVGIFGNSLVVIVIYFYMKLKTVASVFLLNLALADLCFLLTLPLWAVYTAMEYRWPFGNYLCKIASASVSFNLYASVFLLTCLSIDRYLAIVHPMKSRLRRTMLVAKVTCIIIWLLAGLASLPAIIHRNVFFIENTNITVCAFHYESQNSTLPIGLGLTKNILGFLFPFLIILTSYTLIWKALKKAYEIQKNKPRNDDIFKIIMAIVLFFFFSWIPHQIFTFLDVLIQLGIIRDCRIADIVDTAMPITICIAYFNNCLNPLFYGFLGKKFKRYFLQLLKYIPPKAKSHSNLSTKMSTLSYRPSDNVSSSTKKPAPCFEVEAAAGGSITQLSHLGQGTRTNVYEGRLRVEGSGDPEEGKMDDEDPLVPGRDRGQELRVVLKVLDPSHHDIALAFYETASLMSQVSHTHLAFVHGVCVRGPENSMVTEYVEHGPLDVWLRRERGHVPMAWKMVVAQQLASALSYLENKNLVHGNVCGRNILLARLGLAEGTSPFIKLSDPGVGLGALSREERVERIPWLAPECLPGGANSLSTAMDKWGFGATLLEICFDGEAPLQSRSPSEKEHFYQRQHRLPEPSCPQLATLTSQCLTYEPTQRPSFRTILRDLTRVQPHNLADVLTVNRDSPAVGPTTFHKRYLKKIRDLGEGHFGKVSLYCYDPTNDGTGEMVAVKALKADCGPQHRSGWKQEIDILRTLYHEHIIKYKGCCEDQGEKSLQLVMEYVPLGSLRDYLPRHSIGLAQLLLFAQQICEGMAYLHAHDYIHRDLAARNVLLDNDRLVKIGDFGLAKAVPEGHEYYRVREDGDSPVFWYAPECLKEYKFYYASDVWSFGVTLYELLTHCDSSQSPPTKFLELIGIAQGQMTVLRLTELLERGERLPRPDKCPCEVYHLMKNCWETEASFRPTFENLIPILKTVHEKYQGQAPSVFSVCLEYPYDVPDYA
Text: (§1) The membrane span protein (X) is fused to the C-terminal region of Tyk2 comprising the kinase domain, whereas the polypeptide interacting with the membrane span protein (Y) is fused to a fragment of gp130 which contains phosphorylation sites. When membrane span protein X and the polypeptide Y interact, the Tyk2 kinase domain phosphorylates the phosphorylation sites of gp130. STAT3 transcription factors are recruited to these phosphorylated sites and are in turn phosphorylated by the Tyk2 kinase domain, which results in their activation. Dimers of activated STAT3 transcription factors are able to bind the specific rPAPI promoter, which drives the expression of a firefly luciferase reporter gene. The activity of this reporter gene is measured as light production in a luciferase detection assay using a luminometer.
Transfections were carried out using a standard calcium phosphate method. HEK293-T cells were seeded in black tissue-culture treated 96-well plates at 10.000 cells/well in 100 μl culture medium (DMEM supplemented with 10% FCS). Twenty-four hours later, plasmid DNA mixes were prepared that contained plasmids encoding fusion proteins with the first and second interacting proteins and reporter plasmids. The DNA was supplemented with 5 μl 2.5M CaCl2) and double distilled water to a final volume of 50 μl. This mixture was added drop wise to 50 μl 2×HeBS buffer (280 mM NaCl, 1.5 mM Na2HPO4, 50 mM Hepes; pH 7.05) while vigorously vortexing. After incubation at room temperature for 15 min. to allow DNA precipitates to form, the solution was added to the cells at 10 μl/well. Cells were incubated at 37° C., 8% CO2. Twenty-four hours after transfection, cells were treated with the indicated amounts of ligand, either alone or combined with the indicated amount of antagonist. In the case of Irestatin 9389, cells were pre-treated with the antagonist before adding vehicle (DMSO) or tunicamycin. Another twenty-four hours later, luciferase activity was measured using the Luciferase Assay System kit (Promega) on a TopCount luminometer (Perkin-Elmer). Each transfection was done in triplicate and the average of the luciferase activity readings was used in the calculations.
(§2) The fold induction for each sample was calculated as the ratio of the measured luciferase activity relative to the luciferase activity for the untreated sample of the same transfection.
Cells were transfected with the following combinations of plasmids (250 ng of the Tyk2(C) fusion construct, 250 ng of the gp130 fusion construct and 50 ng of the luciferase reporter construct) according to the methods described above:
Cells were transfected with 125 ng of the pMet7-SSTR2-Tyk2(C)−HA or pMet7-AGTR1-Tyk2(C)−HA fusion construct, 250 ng of the pMG2-ARRB2 gp130 fusion construct and 50 ng of the pXP2d2-rPAPI-luciferase reporter plasmid, according to the methods described above.

[4] = molecular target: T3, human somatostatin receptor 2 (SSTR2) (Homo sapiens, UniProt P30874); experiment: Ligand-dependent SSTR2-ARRB2 interaction, Tyk2(C)/gp130 fusion STAT3-luciferase reporter assay; format: cell-based; conditions: for effect of antagonist on SSTR2-ARRB2 interaction signal: 1 μM somatostatin, 0.05 or 0.5 μM CYN154806, 0.1 or 1 μM losartan or telmisartan, FIG. 4 transfection b; for effect of antagonist on SSTR2-ARRB2 interaction signal, dose-response: 10 μM somatostatin, antagonist 10^-13 M up to 10^-6 M, FIG. 5A
T3 construct: expressed in transfected cells; host or cells: HEK293-T
T3 sequence (P30874 with tags, fused parts or gaps): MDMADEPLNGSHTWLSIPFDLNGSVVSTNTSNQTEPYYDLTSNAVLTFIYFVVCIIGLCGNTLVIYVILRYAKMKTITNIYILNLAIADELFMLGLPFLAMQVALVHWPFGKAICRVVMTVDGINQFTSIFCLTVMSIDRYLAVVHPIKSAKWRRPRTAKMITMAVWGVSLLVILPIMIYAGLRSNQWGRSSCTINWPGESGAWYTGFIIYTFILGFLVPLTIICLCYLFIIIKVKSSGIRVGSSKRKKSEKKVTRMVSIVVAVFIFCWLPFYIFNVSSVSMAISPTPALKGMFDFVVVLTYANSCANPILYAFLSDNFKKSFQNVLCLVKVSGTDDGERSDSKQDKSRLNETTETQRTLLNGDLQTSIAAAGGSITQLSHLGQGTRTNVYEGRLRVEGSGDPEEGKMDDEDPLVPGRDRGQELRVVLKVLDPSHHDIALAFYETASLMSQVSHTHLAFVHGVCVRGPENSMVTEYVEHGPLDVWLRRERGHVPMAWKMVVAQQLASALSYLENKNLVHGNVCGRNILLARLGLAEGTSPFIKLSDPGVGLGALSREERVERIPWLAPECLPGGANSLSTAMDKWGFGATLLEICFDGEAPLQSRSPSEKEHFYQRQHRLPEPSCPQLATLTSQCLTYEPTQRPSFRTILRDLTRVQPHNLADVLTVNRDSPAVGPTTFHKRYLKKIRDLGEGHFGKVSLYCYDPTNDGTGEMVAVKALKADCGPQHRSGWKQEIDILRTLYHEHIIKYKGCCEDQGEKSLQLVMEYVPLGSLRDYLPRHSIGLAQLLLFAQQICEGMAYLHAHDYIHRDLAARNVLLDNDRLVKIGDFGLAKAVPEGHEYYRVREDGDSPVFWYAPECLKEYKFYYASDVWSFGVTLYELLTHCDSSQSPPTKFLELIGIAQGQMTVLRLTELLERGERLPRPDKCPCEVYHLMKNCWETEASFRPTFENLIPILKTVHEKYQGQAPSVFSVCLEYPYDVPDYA
Text: as §1, §2
The assay was further optimized by transferring the Tyk2(C) fusion construct into another vector system (pSVSport) and testing the resulting constructs in a similar experiment as described above. The following combinations of plasmids were transfected (500 ng of the Tyk2(C) fusion construct, 250 ng of the gp130 fusion construct and 50 ng of the luciferase reporter construct) according to the methods described above: […]

effect of antagonist on AGTR1-ARRB2 interaction signal [3] | effect of antagonist on AGTR1-ARRB2 interaction signal, dose-response ([3]; FIG. 5B) | effect of antagonist on SSTR2-ARRB2 interaction signal [4] | effect of antagonist on SSTR2-ARRB2 interaction signal, dose-response [4] | effect of telmisartan compared to losartan on AGTR1-ARRB2 interaction ([3]; dose-response, FIG. 5B) | Compound | ERN1 endonuclease activity [1] | disruption of ERN1 dimerization ([2]; 1 μg/ml tunicamycin or vehicle (DMSO) combined with increasing doses of Irestatin 9389, FIG. 6D) | luciferase signal of ERN1 dimerization upon induction of ER-stress ([2]; HEK293-T cells, ERN1-Tyk2(C) + ERN1-gp130, 0-0.5-1-2 μg/ml tunicamycin, FIG. 6A)
– | – | – | – | – | Cc1csc(NC(=O)CSc2nc3c(c(C(F)(F)F)c2C#N)CCC3)n1 [Irestatin 9389] | inhibit ERN1 endonuclease activity | dose-dependent disruption of ERN1 dimerization | –
selectively inhibited | selectively and completely inhibited | no effect | no effect | – | CCCCc1nc(Cl)c(CO)n1Cc1ccc(-c2ccccc2-c2nn[nH]n2)cc1 [losartan] | – | – | –
selectively inhibited | selectively and completely inhibited | no effect | no effect | stronger effect | CCCc1nc2c(C)cc(-c3nc4ccccc4n3C)cc2n1Cc1ccc(-c2ccccc2C(=O)O)cc1 [telmisartan] | – | – | –
– | – | – | – | – | tunicamycin | – | – | dose-dependent signal
